US8642065B2, “Osteogenic promoting implants and methods of inducing bone growth” (DePuy Synthes Products, LLC, priority 2011, dated 2014)
Counter-ions that a name gives are not always drawn. Like-named read-outs stand apart in the source and are kept apart here.

How the values were obtained:
[1] = test system: primary human mesenchymal stem cells (MSCs); assay: Osteoinductive (OI) alkaline phosphatase (ALP) assay, dose response, ALP normalised to DNA; assay type: cell-based
From the text: (§1) Samples from several classes of small molecule compounds including, corticosteroids, glucocorticoids, oxysterols, compounds that impact the HMG coA reductase pathway and compounds that upregulate intracellular cAMP were screened for osteoinductive potential with an alkaline phosphatase (ALP) assay in primary human mesenchymal stem cells (MSCs). Sample compounds were screened over a dose range in a multiwell plate format using DNA to normalize the ALP response as a function of cell number. These dose response curves allowed for the determination of an EC50 to measure relative potency of the osteogenic response between compounds. FIG. 1 is a representative dose response curve for two of the corticosteroid compounds tested, clobetasol propionate and dexamethasone. In addition to the functional analysis, certain identified compounds were run through an in vitro L929 cytotoxicity assay to determine a CC50.

[2] = In vitro L929 cytotoxicity assay (CTG); assay type: cell-based; conditions: mouse, L929 cells; read-out: Cytotox (CTG) CC50
From the text: as §1

MSCs [3] = assay: Relative potency: ALP assay after short exposure times, then basal media to assay completion; assay type: cell-based, human; conditions: for EC50: Homo sapiens, MSCs, then basal media; for Max Osteogenic Response: time range to reach the full response of the ALP assay control (dexamethasone at 10 nM for 6 days)
Protocol: One part of this technology may involve coating an osteoconductive scaffold with an osteoinductive small molecule compound to thereby deliver the compound locally when the scaffold is implanted. Consequently, the optimal time and concentration profile required for the compound to remain at the site in order to influence an osteogenic outcome was determined. Initially, potency was determined by looking at exposure over 6 days. In order to better understand the optimal exposure profile, MSCs were treated over a series of dose ranges for exposure times starting at 1 hour out to 4 days, after which the compound treated media was removed and the cells were allowed to continue to assay completion under basal media conditions. This allowed for the determination of the relative potency of the compounds over short exposure periods and gave an indication of the release requirements that would be necessary to achieve the desired osteogenic outcome.
FIG. 2 is a representative relative potency graph of a corticosteroid, fluticasone propionate, based on the results shown in Table 2.

L929 = assay: In vitro L929 cytotoxicity assay (CTG); assay type: cell-based; conditions: L929 cells; read-out: Cytotox (CTG) CC50
From the text: as §1

MSCs [4] = assay: In vitro 3-D efficacy: ALP RNA expression in MSCs seeded on coated Scaffold I; assay type: cell-based; conditions: compound precoated on Scaffold I, MSCs cultured three days, versus basal conditions
Protocol: The osteoinductive potential of selected small molecule compounds were determined in vitro by seeding MSCs onto a three dimensional b-TCP polymer composite scaffold, Scaffold I, which had been coated with selected compounds prior to seeding. These cells were allowed to culture for a period of time after which they were assayed for alkaline phosphatase (ALP) RNA content, an early marker of osteogenic differentiation. FIG. 7 is a graphical illustration showing the amount of ALP RNA expression in the MSCs, expressed as a fold increase over basal conditions (standard culture conditions). In this example, dexamethasone (a control for the assay) was added to the culture media in solution whereas in all other cases the compounds were precoated on to Scaffold I followed by addition of the MSCs. The cells were then cultured for three days and assayed for their level of osteogenic response via ALP RNA expression.

[5] = Homo sapiens, Mesenchymal stem cells, 144 h, primary human MSCs, exposure over 6 days, read-out: OI Assay (ALP) EC50
[6] = Homo sapiens, Mesenchymal stem cells, 144 h, MSCs, 6 days exposure, read-out: EC50 6 days
[7] = 4 hr exposure, read-out: EC50 4 hr.
[8] = 72 hr exposure, read-out: EC50 72 hr
[9] = primary human MSCs, exposure over 6 days, read-out: OI Assay (ALP) EC50
[10] = 1 hr exposure, read-out: EC50 1 hr.
[11] = 24 hr exposure, read-out: EC50 24 hr.

C[C@H]1C[C@H]2[C@@H]3CCC4=CC(=O)C=C[C@]4(C)[C@@]3(F)[C@@H](O)C[C@]2(C)[C@@]1(O)C(=O)CO [Betamethasone]
EC50 [1, 5]: 1.96 nM

CC(C)CCC[C@@H](C)[C@H]1CC[C@H]2[C@@H]3CC=C4C[C@@H](O)CC[C@]4(CO)[C@H]3CC[C@]12C [19-hydroxy-cholesterol]
EC50 [1, 5]: > 12000 nM

OCCN(CCO)c1nc(N2CCCCC2)c2nc(N(CCO)CCO)nc(N3CCCCC3)c2n1 [Dipyridamole]
CC50 [2]: > 30000 nM

CC(C)CC[C@@H](O)[C@@H](C)[C@H]1CC[C@H]2[C@@H]3CC=C4C[C@@H](O)CC[C@]4(C)[C@H]3CC[C@]12C [22(r)-hydroxy-cholesterol]
EC50 [1, 5]: 785 nM
CC50 [2]: > 12000 nM

CC(C)CC[C@H](O)[C@@H](C)[C@H]1CC[C@H]2[C@@H]3CC=C4C[C@@H](O)CC[C@]4(C)[C@H]3CC[C@]12C [22(S)-hydroxy-cholesterol]
EC50 [1, 5]: > 12000 nM

CC(=O)OCC(=O)[C@@]12N=C(C)O[C@@H]1C[C@H]1[C@@H]3CCC4=CC(=O)C=C[C@]4(C)[C@H]3[C@@H](O)C[C@@]12C [Deflazacort]
EC50 [1, 5]: 9.85 nM

CC(=O)[C@@]1(O)CC[C@H]2[C@@H]3C[C@H](C)C4=CC(=O)C=C[C@]4(C)[C@@]3(F)[C@@H](O)C[C@@]21C [Fluorometholone]
EC50 [1, 6]: 0.319 nM
EC50 [1, 5]: 0.319 nM
EC50 (MSCs [3]; [7]): 0.464 nM
EC50 (MSCs [3]; [8]): 0.146 nM
Max Osteogenic Response (MSCs [3]): 144 h
CC50 [2]: > 5000 nM

C=C(CC[C@]12O[C@H](C(=O)O)[C@@](O)(C(=O)O)[C@](C(=O)O)(O1)[C@H](OC(=O)/C=C/[C@@H](C)C[C@@H](C)CC)[C@H]2O)[C@@H](OC(C)=O)[C@H](C)Cc1ccccc1 [Zaragozic Acid A]
EC50 [1, 9]: 715 nM
CC50 (L929): > 30000 nM

CC1(C)O[C@@H]2C[C@H]3[C@@H]4CCC5=CC(=O)CC[C@]5(C)[C@@]4(F)[C@@H](O)C[C@]3(C)[C@]2(C(=O)CCl)O1 [Halcinonide]
EC50 [1, 6]: 0.235 nM
EC50 [1, 5]: 0.235 nM
EC50 (MSCs [3]; [10]): 2.29 nM
EC50 (MSCs [3]; [11]): 1.26 nM
EC50 (MSCs [3]; [8]): 0.115 nM
Max Osteogenic Response (MSCs [3]): 72 h
CC50 [2]: > 10000 nM
ALP RNA expression (osteogenic differentiation of MSCs) (MSCs [4]): upregulated osteogenic differentiation of MSCs significantly

C[C@@H]1C[C@H]2[C@@H]3CCC4=CC(=O)C=C[C@]4(C)[C@@]3(F)[C@@H](O)C[C@]2(C)[C@@]1(O)C(=O)CO [Dexamethasone]
EC50 [1, 6]: 0.95 nM
EC50 [1, 5]: 0.95 nM
EC50 (MSCs [3]; [7]): 0.787 nM
EC50 (MSCs [3]; [8]): 0.277 nM
CC50 [2]: > 50000 nM

CCCC(=O)Nc1ncnc2c1ncn2[C@@H]1O[C@@H]2COP(=O)(O)O[C@H]2[C@H]1OC(=O)CCC [dbcAMP]
EC50 [1, 9]: > 10000 nM

O=C(O)c1ccc(CCN2CCN(C/C=C/c3ccc(Cl)cc3)CC2)cc1 [bm15766 sulfate]
EC50 [1, 9]: > 10000 nM

O=CN(O)CCCP(=O)(O)O [Fosmidomycin]
EC50 [1, 5]: > 10000 nM

COC(=O)[C@H](CCSC)NC(=O)c1ccc(NC[C@@H](N)CS)cc1-c1ccccc1 [FTI-277 trifluoroacetate salt]
EC50 [1, 9]: > 12000 nM

CCC(=O)O[C@]1(C(=O)CCl)[C@@H](C)C[C@H]2[C@@H]3CCC4=CC(=O)C=C[C@]4(C)[C@@]3(F)[C@@H](O)C[C@@]21C [Clobetasol propionate]
EC50 [1, 6]: 0.012 nM
EC50 [1, 5]: 0.012 nM
EC50 (MSCs [3]; [10]): 0.0605 nM
EC50 (MSCs [3]; [7]): 0.019 nM
EC50 (MSCs [3]; [11]): 0.0804 nM
EC50 (MSCs [3]; [8]): 0.00371 nM
Max Osteogenic Response (MSCs [3]): 72 h
CC50 [2]: > 30000 nM
ALP RNA expression (osteogenic differentiation of MSCs) (MSCs [4]): upregulated osteogenic differentiation of MSCs significantly

CC[C@H](CC[C@@H](C)[C@H]1CC[C@H]2[C@@H]3CC=C4C[C@@H](O)CC[C@]4(C)[C@H]3CC[C@]12C)C(C)C [β-Sitosterol]
EC50 [1, 9]: > 12000 nM

CC(C)Cn1c(=O)n(C)c(=O)c2[nH]cnc21 [3-isobutyl 1-methylxanthine (IBMX), 3-isobutyl 1-methylxanthine]
EC50 [1, 5]: > 10000 nM

CC1(C)O[C@@H]2C[C@H]3[C@@H]4C[C@H](F)C5=CC(=O)CC[C@]5(C)[C@H]4[C@@H](O)C[C@]3(C)[C@]2(C(=O)CO)O1 [Flurandrenolide]
EC50 [1, 5]: 1.56 nM

CC(=O)CCCCn1c(=O)c2c(ncn2C)n(C)c1=O [Pentoxifylline (Trental), Pentoxifylline]
EC50 [1, 5]: > 10000 nM

CCCn1cnc2c1c(=O)n(CCCCC(C)=O)c(=O)n2C [Propentofylline]
EC50 [1, 5]: > 10000 nM

C[C@]12CCC(=O)C=C1CC[C@@H]1[C@@H]2[C@@H](O)C[C@]2(C=O)[C@@H](C(=O)CO)CC[C@@H]12 [Aldosterone 98%, Aldosterone]
EC50 [1, 5]: 287 nM

CCN(CC)CCOc1ccc(C(O)(Cc2ccc(Cl)cc2)c2ccc(C)cc2)cc1 (centres unmarked) [Triparanol]
EC50 [1, 5]: > 10000 nM

C[C@H](CCCC(C)(C)O)[C@H]1CC[C@H]2[C@@H]3CC=C4C[C@@H](O)CC[C@]4(C)[C@H]3CC[C@]12C [25-hydroxy-cholestero]
EC50 [1, 9]: > 12000 nM

O=C1C=C2C(=CCOC2O)O1 (centres unmarked) [Patulin]
EC50 ([1]; Mesenchymal stem cells, 144 h, primary human MSCs, exposure over 6 days, read-out: OI Assay (ALP) EC50): > 10000 nM

CC(=O)OCC(=O)[C@@]1(OC(C)=O)[C@@H](C)C[C@H]2[C@@H]3C[C@H](F)C4=CC(=O)C=C[C@]4(C)[C@@]3(F)[C@@H](O)C[C@@]21C [Diflorasone Diacetate]
EC50 [1, 5]: 1.38 nM

COC(=O)[C@H](CC(C)C)NC(=O)c1ccc(NC[C@@H](N)CS)cc1-c1ccccc1 [GGTI-286]
EC50 [1, 9]: > 12000 nM

C[C@]12C=CC(=O)C=C1CC[C@H]1[C@@H]3C[C@@H](O)[C@](O)(C(=O)CO)[C@@]3(C)C[C@H](O)[C@@]12F [Triamcinolone]
EC50 [1, 5]: 4.13 nM

CCCC1O[C@@H]2C[C@H]3[C@@H]4CCC5=CC(=O)C=C[C@]5(C)[C@H]4[C@@H](O)C[C@]3(C)[C@]2(C(=O)CO)O1 (some centres unmarked) [Budesonide]
EC50 [1, 6]: 0.296 nM
EC50 [1, 5]: 0.296 nM
EC50 (MSCs [3]; [10]): 47.9 nM
EC50 (MSCs [3]; [7]): 5.47 nM
EC50 (MSCs [3]; [11]): 4.48 nM
EC50 (MSCs [3]; [8]): 0.0533 nM
Max Osteogenic Response (MSCs [3]): 72 h
CC50 [2]: > 30000 nM

CC(=O)OCC(=O)[C@@]1(O)CC[C@H]2[C@@H]3CCC4=CC(=O)CC[C@]4(C)[C@@]3(F)[C@@H](O)C[C@@]21C [Fludrocotisone actetate]
EC50 [1, 9]: 4.12 nM
